Measurements: article PMC5376056, “Developing Hypothetical Inhibition Mechanism of Novel Urea Transporter B Inhibitor” (Scientific Reports, 2014)

Legend:
UT-B [1] = biological target: T1, UT-B (Homo sapiens, UniProt Q13336); assay: erythrocyte osmotic lysis assay, human erythrocytes; format: cell-based; conditions: mean ± s.e.m., n = 3
T1 construct: using erythrocytes, which originally express UT-B; endogenous in cells; host or cells: human erythrocytes (vein blood)
T1 sequence (Q13336 1-389): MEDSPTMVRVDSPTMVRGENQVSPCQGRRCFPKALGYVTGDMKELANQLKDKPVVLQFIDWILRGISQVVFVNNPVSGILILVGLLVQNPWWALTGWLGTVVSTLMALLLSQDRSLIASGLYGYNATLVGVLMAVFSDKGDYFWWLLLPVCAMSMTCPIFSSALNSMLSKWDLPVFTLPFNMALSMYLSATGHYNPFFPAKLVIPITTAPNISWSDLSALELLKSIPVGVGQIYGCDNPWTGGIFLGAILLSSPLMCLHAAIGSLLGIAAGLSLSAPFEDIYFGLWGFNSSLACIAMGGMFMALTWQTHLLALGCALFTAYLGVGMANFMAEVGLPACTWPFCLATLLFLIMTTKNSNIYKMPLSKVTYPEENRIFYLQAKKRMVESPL
Protocol: (§1) Vein blood was collected from humans, SD rats, wild-type mice or UT-B-null mice as described previously.
(§2) High-throughput screening assay was performed for identification of UT-B inhibitors using erythrocytes, which originally express UT-B as described previously. Erythrocytes were diluted to a hematocrit value of 2% in hyperosmolar PBS containing 1.25 M acetamide and 5 mM glucose. Erythrocyte suspensions were preserved at room temperature for 2 h by periodic pipette mixture. Then, 99 μl erythrocyte suspension from a reservoir was added to each well of a 96-well round-bottom microplate, to which test compounds were added (1 μl, 10 μM final compound concentration, 1% final DMSO concentration). After 6 min of incubation, 20 μl of the erythrocyte suspension was added rapidly to each well of a 96-well black-walled plate containing 180 μl isomolar buffer (PBS containing 1% DMSO) in each well. Erythrocyte lysis was quantified from a single time point measure of absorbance at 710 nm wavelength with a plate reader (BioTek)[27].
(§3) The percentage of erythrocyte lysis in each test well was calculated using control values from the same plate as: % lysis = 100%. (Aneg-Atest)/(Aneg-Apos), where Atest is the absorbance value from a test well. Nonspecific UT-B inhibitor phloretin (Sigma-Aldrich, 700 μM final concentration) was added as an additional positive control.

UT-B [2] = biological target: T2, UT-B (Rattus norvegicus, UniProt P97689); assay: erythrocyte osmotic lysis assay, rat erythrocytes; format: cell-based; conditions: mean ± s.e.m., n = 3
T2 construct: using erythrocytes, which originally express UT-B; endogenous in cells; host or cells: SD rat erythrocytes (vein blood)
T2 sequence (P97689 1-384): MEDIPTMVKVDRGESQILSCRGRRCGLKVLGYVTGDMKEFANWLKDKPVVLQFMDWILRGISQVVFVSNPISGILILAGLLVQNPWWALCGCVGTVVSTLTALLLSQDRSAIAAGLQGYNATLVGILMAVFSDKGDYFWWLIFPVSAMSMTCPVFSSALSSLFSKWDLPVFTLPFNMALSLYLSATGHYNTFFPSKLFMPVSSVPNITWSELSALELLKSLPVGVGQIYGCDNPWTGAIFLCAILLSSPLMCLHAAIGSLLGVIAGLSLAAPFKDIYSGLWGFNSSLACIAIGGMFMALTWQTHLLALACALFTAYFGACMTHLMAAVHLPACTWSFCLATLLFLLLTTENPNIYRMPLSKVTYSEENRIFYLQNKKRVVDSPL
Protocol: as §1, §2, §3

UT-B [3] = biological target: T3, UT-B (Mus musculus, UniProt Q8VHL0); assay: erythrocyte osmotic lysis assay, mouse erythrocytes; format: cell-based; conditions: mean ± s.e.m., n = 3
T3 construct: using erythrocytes, which originally express UT-B; endogenous in cells; host or cells: wild-type mouse erythrocytes (vein blood)
T3 sequence (Q8VHL0 1-384): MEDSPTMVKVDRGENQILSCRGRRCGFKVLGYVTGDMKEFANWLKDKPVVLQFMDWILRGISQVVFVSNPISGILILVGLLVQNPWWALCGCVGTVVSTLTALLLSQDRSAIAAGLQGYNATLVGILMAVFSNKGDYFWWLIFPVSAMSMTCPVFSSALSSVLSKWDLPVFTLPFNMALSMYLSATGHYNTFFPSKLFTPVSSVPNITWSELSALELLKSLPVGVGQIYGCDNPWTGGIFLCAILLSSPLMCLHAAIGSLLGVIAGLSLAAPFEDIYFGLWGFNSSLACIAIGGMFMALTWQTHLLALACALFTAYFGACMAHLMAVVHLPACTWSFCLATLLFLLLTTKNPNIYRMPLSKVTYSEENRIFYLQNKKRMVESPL
Protocol: as §1, §2, §3

UT-B [4] = biological target: T1, UT-B; parameters: method as in PMID 23486518; conditions: cited from earlier work
UT-B [5] = biological target: T2, UT-B; parameters: method as in PMID 23486518; conditions: cited from earlier work
UT-B [6] = biological target: T3, UT-B; parameters: method as in PMID 23486518; conditions: cited from earlier work
UT-B [7] = biological target: UT-B; parameters: method as in Ren et al., under review; conditions: pIC50 = -log(IC50) + 6; analogues of PU21; ref Ren et al., under review; cited from earlier work
UT-B [8] = test system: UT-B; parameters: method as in PMID 23486518; conditions: rabbit; cited from earlier work
[9] = parameters: method as in PMID 23486518; conditions: cited from earlier work

SMILES	IC50 (UT-B [1]) [µM]	IC50 (UT-B [2]) [µM]	IC50 (UT-B [3]) [µM]	UT-B inhibition activity in vitro (UT-B [4])	UT-B inhibition activity in vitro (UT-B [5])	UT-B inhibition activity in vitro (UT-B [6])	pIC50 (UT-B [7])	UT-B inhibition activity in vitro (UT-B [8])	diuresis activity in vivo [9]
COc1ccc2nc3sc(C(C)=O)c(N)c3cc2c1 [PU21, 1-(3-amino-6-methoxythieno[2,3-b]quinolin-2-yl)ethanone]	3.78 ± 0.48	2.62 ± 0.12	4.81 ± 0.4						
CC(=O)c1sc2nc3ccc(C)cc3cc2c1N [PU-14]				potential inhibition activity	potential inhibition activity	potential inhibition activity	5.454	potential inhibition activity	pharmacological diuresis activity

More lines, in order of falling IC50 (UT-B [1]), values ahead:

IC50 (UT-B [1]) [µM]	IC50 (UT-B [2]) [µM]	IC50 (UT-B [3]) [µM]	SMILES	UT-B inhibition activity in vitro (UT-B [4])	UT-B inhibition activity in vitro (UT-B [5])	UT-B inhibition activity in vitro (UT-B [6])	pIC50 (UT-B [7])	UT-B inhibition activity in vitro (UT-B [8])	diuresis activity in vivo [9]
5.63 ± 0.82	3.18 ± 0.24	4.13 ± 0.33	Cc1nc2ccc(NC(=O)c3ccco3)cc2c(=O)n1Cc1ccc(Cl)cc1 [PU468, N-(3-(4-chlorobenzyl)-2-methyl-4-oxo-3,4-dihydroquinazolin-6-yl)furan-2-carboxamide]						
0.28 ± 0.01	> 10	> 10	Cn1c(=O)c2c(nc(SCC(=O)Nc3cccc(O)c3)n2Cc2ccccc2)n(C)c1=O [PU474, 2-((7-benzyl-1,3-dimethyl-2,6-dioxo-2,3,6,7-tetrahydro-1H-purin-8-yl)thio)-N-(3-hydroxyphenyl)acetamide]						
0.2 ± 0.03	> 10	> 10	CCN(Cc1ccccc1)[C@H](c1cc2c(C)cc(C)cc2[nH]c1=O)c1nnnn1C[C@@H]1CCCO1 [PU168, 3-((R)-(benzyl(ethyl)amino)(1-(((S)-tetrahydrofuran-2-yl)methyl)-1H-tetrazol-5-yl)methyl)-5,7-dimethylquinolin-2(1H)-one]						
